Biological target: T1, AHR (UniProt P35869)
T1 construct: IC50
T1 sequence (P35869 1-848): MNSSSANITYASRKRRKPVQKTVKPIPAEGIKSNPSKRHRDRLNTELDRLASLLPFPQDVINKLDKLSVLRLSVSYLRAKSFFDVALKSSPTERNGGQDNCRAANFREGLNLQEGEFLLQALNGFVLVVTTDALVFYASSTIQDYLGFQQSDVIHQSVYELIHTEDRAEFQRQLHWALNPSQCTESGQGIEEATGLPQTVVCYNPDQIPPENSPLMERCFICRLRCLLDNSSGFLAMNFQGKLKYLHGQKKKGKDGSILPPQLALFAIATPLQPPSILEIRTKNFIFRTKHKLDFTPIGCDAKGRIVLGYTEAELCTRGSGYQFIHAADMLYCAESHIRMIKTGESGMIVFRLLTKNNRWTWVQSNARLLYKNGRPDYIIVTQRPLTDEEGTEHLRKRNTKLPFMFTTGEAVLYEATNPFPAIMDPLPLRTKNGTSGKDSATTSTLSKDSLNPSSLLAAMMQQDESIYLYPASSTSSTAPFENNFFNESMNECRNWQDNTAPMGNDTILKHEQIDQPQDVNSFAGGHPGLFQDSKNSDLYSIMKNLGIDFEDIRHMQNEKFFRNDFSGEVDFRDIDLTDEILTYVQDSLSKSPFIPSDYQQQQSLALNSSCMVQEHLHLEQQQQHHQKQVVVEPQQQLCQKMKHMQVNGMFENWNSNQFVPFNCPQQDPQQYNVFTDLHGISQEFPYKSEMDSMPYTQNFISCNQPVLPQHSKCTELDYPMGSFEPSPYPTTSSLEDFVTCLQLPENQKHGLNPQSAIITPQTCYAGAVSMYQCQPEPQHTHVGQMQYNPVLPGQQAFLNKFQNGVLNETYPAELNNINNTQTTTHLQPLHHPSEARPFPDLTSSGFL
Test: DRE-Luciferase Reporter Assay (Alternate Method) (Example 1B)
Type: cell-based, murine or human
Settings: cell line and AHR activating ligand not specified
Method: AHR binds to Dioxin Responsive Elements (DRE) upstream of genes that it activates. One measure of AHR activity is activation of a reporter gene, such as luciferase, downstream of one or multiple DRE elements. Luciferase activity will reflect activation and inhibition of AHR in the cells expressing his reporter.
Murine Hepa1-6 or Hepa-1c1c7 or other murine cell line with a DRE-luciferase reporter either stably or transiently transfected were plated in media in plates (96-well, 384-well or other plates) and incubated overnight at 37° C. in a CO2 incubator or compound and agonist were added at the time of plating. Likewise, human HepG2 or other human cell line with a DRE-luciferase reporter either stably or transiently transfected were plated in media in plates (96-well, 384-well or other plates) and incubated overnight at 37° C. in a CO2 incubator or compound and agonist were added at the time of plating.
At the time that cells are plated or following incubation overnight, an AHR activating ligand, such as TCDD, kynurenine, ITE (2-(1H-indole-3-ylcarbonyl)-4-thiazolecarboxylic methyl ester), VAF347, BNF (beta-naphthoflavone), FICZ (6-formylindolo(3,2-b) carbazole or other AHR ligands, was added with or without AHR antagonist.
Cells were incubated for 4, 15 or 24 hours or another time point and then lysed for determination of luciferase activity as a read-out of the AHR activation or inhibition. Luciferase was measured with a commercial kit such as the Promega Luciferase kit or any kit or reagents that provide the luciferin substrate for measuring luciferase activity. The level of luciferase with only activating ligand added was the maximum signal while the luciferase with no ligand was the minimum signal. IC50 values were determined as the concentration which inhibits half of the luciferase activity.

Compound | IC50
N#Cc1cncc(-c2nc(NCCc3c[nH]c4ccccc34)cc(OC3CCCC3)n2)c1 [I-53, 5-[4-(Cyclopentoxy)-6-[2-(1H-indol-3-yl)ethylamino]pyrimidin-2-yl]pyridine-3-carbonitrile] | < 500 nM
CC(C)c1cnn2c(N[C@H](C)Cc3ccc(O)cc3)cc(-c3cncc(F)c3)nc12 [I-97a, 4-[(2R)-2-[[5-(5-Fluoro-3-pyridyl)-3-isopropyl-pyrazolo[1,5-a]pyrimidin-7-yl]amino]propyl]phenol] | > 1500 nM
Fc1cncc(-c2cc(N[C@@H]3CCc4[nH]c5ccccc5c4C3)n3ncc(C(F)(F)F)c3n2)c1 [I-35, (3R)—N-[5-(5-Fluoro-3-pyridyl)-3-(trifluoromethyl)pyrazolo[1,5-a]pyrimidin-7-yl]-2,3,4,9-tetrahydro-1H-carbazol-3-amine] | > 1500 nM
Cc1cc(CCNc2cc(-c3cncc(F)c3)nc3c(C(C)C)cnn23)ccc1O [I-102, 4-[2-[[5-(5-Fluoro-3-pyridyl)-3-isopropyl-pyrazolo[1,5-a]pyrimidin-7-yl]amino]ethyl]-2-methyl-phenol] | < 500 nM
Cc1[nH]c2c(F)cccc2c1CCNc1cc(-c2cncc(F)c2)nc2c(C(C)C)cnn12 [I-66, N-[2-(7-fluoro-2-methyl-1H-indol-3-yl)ethyl]-5-(5-fluoro-3-pyridyl)-3-isopropyl-pyrazolo[1,5-a]pyrimidin-7-amine] | < 500 nM
Cc1cnn2c(NC3Cc4ccc(O)cc4C3)cc(-c3cncc(F)c3)nc12 (stereo not shown) [I-51, 2-[[5-(5-Fluoro-3-pyridyl)-3-methyl-pyrazolo[1,5-a]pyrimidin-7-yl]amino]indan-5-ol] | < 500 nM
Fc1cncc(-c2nc(NCCc3c[nH]c4ccccc34)n3ncc(Br)c3n2)c1 [I-141, 8-bromo-2-(5-fluoro-3-pyridyl)-N-[2-(1H-indol-3-yl)ethyl]pyrazolo[1,5-a][1,3,5]triazin-4-amine] | < 500 nM
Cc1cnn2c(NC(CO)Cc3c[nH]c4ccccc34)cc(-c3cncc(F)c3)nc12 (stereo not shown) [I-178] | > 1500 nM
Cc1cnn2c(NCCc3ccccc3)cc(-c3cncc(F)c3)nc12 [I-218, 5-(5-fluoro-3-pyridyl)-3-methyl-N-(2-phenylethyl)pyrazolo[1,5-a]pyrimidin-7-amine] | < 500 nM
CNC(=O)C(Cc1c[nH]c2ccccc12)Nc1cc(-c2cncc(F)c2)nc2c(C)cnn12 (stereo not shown) [I-182] | > 1500 nM
CC(C)c1cnn2c(C(=O)NCc3ccc(O)cc3)cc(-c3cncc(F)c3)nc12 [I-100, 5-(5-Fluoro-3-pyridyl)-N-[(4-hydroxyphenyl)methyl]-3-isopropyl-pyrazolo[1,5-a]pyrimidine-7-carboxamide] | > 1500 nM
Cc1cnn2c(NCC3(c4c[nH]c5ccccc45)CC3)cc(-c3cncc(F)c3)nc12 [I-167] | > 1500 nM
CN(C)C(=O)c1cnn2c(NC3CCc4[nH]c5ccccc5c4C3)nc(-c3cncc(F)c3)nc12 (stereo not shown) [I-288] | < 500 nM
CC(C)c1cnn2c(NC[C@@H](C)c3ccc(O)cc3)cc(-c3cncc(F)c3)nc12 [I-28a, 4-[(1S)-2-[[5-(5-fluoro-3-pyridyl)-3-isopropyl-pyrazolo[1,5-a]pyrimidin-7-yl]amino]-1-methyl-ethyl]phenol] | > 1500 nM
CC(C)c1cnn2c(N[C@@H]3CCc4[nH]c5ccccc5c4C3)cc(-c3cccnc3)nc12 [I-245, (3R)—N-[3-Isopropyl-5-(3-pyridyl)pyrazolo[1,5-a]pyrimidin-7-yl]-2,3,4,9-tetrahydro-1H-carbazol-3-amine] | > 1500 nM
CC(C)c1cnn2c(NC3Cc4ccccc4C3)cc(-c3cncc(F)c3)nc12 [I-44, 5-(5-Fluoro-3-pyridyl)-N-indan-2-yl-3-isopropyl-pyrazolo[1,5-a]pyrimidin-7-amine] | > 1500 nM
CC(C)c1cnn2c(NC3CC3c3ccc(O)cc3)cc(-c3cncc(F)c3)nc12 (stereo not shown) [I-181] | > 1500 nM

Compound | IC50
CNC(=O)c1cnn2c(NCCc3c[nH]c4ccccc34)cc(-c3cncc(F)c3)nc12 [I-61, 5-(5-Fluoro-3-pyridyl)-7-[2-(1H-indol-3-yl)ethylamino]-N-methyl-pyrazolo[1,5-a]pyrimidine-3-carboxamide] | < 500 nM
Fc1cncc(-c2nc(N[C@@H]3CCc4[nH]c5ccccc5c4C3)n3ncc(C(F)(F)F)c3n2)c1 [I-267, (3R)—N-[2-(5-Fluoro-3-pyridyl)-8-(trifluoromethyl)pyrazolo[1,5-a][1,3,5]triazin-4-yl]-2,3,4,9-tetrahydro-1H-carbazol-3-amine] | < 500 nM
OCc1cnn2c(NCCc3c[nH]c4ccc(O)cc34)cc(-c3cncc(F)c3)nc12 [I-143, 3-[2-[[5-(5-fluoro-3-pyridyl)-3-(hydroxymethyl)pyrazolo[1,5-a]pyrimidin-7-yl]amino]ethyl]-1H-indol-5-ol] | > 1500 nM
Fc1cncc(-c2cc(N[C@@H]3CCc4[nH]c5ccccc5c4C3)n3nccc3n2)c1 [I-41, (3R)—N-[5-(5-Fluoro-3-pyridyl)pyrazolo[1,5-a]pyrimidin-7-yl]-2,3,4,9-tetrahydro-1H-carbazol-3-amine] | > 1500 nM
CC(C)c1cnn2c(NC3CCc4[nH]c5ccccc5c4C3)cc(-c3ccc4c(c3)OCO4)nc12 (stereo not shown) [I-239] | > 1500 nM
CC(C)c1cnn2c(N[C@@H]3CCc4[nH]c5ccccc5c4C3)cc(-c3ccccc3)nc12 [I-26, (3R)—N-(3-isopropyl-5-phenyl-pyrazolo[1,5-a]pyrimidin-7-yl)-2,3,4,9-tetrahydro-1H-carbazol-3-amine] | > 1500 nM
CC(C)c1cnn2c(NC3CCc4[nH]c5ccccc5c4C3)nc(-c3ccc(OC(F)(F)F)cc3)nc12 (stereo not shown) [I-269] | > 1500 nM
Cc1[nH]c2c(F)cccc2c1CCNc1cc(-c2cncc(F)c2)nc2c(C(=O)N3CCOCC3)cnn12 [I-225, [7-[2-(7-Fluoro-2-methyl-1H-indol-3-yl)ethylamino]-5-(5-fluoro-3-pyridyl)pyrazolo[1,5-a]pyrimidin-3-yl]-morpholino-methanone] | < 500 nM
CC(C)c1cnn2c(N[C@@H]3CCc4[nH]c5ccccc5c4C3)nc(-c3cncnc3)nc12 [I-270, (3R)—N-(8-Isopropyl-2-pyrimidin-5-yl-pyrazolo[1,5-a][1,3,5]triazin-4-yl)-2,3,4,9-tetrahydro-1H-carbazol-3-amine] | < 500 nM
Cc1cnn2c(NC(Cc3c[nH]c4ccccc34)C(N)=O)cc(-c3cncc(F)c3)nc12 (stereo not shown) [I-190b] | > 1500 nM
Fc1cncc(-c2nc(N[C@@H]3CCc4[nH]c5ccccc5c4C3)n3ncc(C4CCCCC4)c3n2)c1 [I-123, (3R)—N-[8-Cyclohexyl-2-(5-fluoro-3-pyridyl)pyrazolo[1,5-a][1,3,5]triazin-4-yl]-2,3,4,9-tetrahydro-1H-carbazol-3-amine] | 1000 to 1500 nM
CC(C)Oc1cc(-c2cncc(F)c2)nc(N[C@@H]2CCc3[nH]c4ccccc4c3C2)n1 [I-134] | > 1500 nM
Cc1cnn2c(N[C@H]3CCc4[nH]c5c(F)cccc5c4C3)cc(-c3cncc(F)c3)nc12 [I-216b] | > 1500 nM
O=C(O)c1cnn2c(NCCc3c[nH]c4ccc(O)cc34)cc(-c3cncc(F)c3)nc12 [I-168] | > 1500 nM
Cc1[nH]c2c(F)cc(F)cc2c1CCNc1cc(-c2cncc(F)c2)nc2ccnn12 [I-85, N-(2-(5,7-Difluoro-2-methyl-1H-indol-3-yl)ethyl)-5-(5-fluoropyridin-3-yl)pyrazolo[1,5-a]pyrimidin-7-amine] | 500 to 1000 nM
CC(C)n1cnc2c(NCCc3cn4ccccc4n3)nc(-c3cncc(F)c3)nc21 [I-22, 2-(5-Fluoro-3-pyridyl)-N-(2-imidazo[1,2-a]pyridin-2-ylethyl)-9-isopropyl-purin-6-amine] | < 500 nM
O=C(c1cnn2c(N[C@@H]3CCc4[nH]c5ccccc5c4C3)nc(-c3cncc(F)c3)nc12)N1CCOCC1 [I-262, [2-(5-Fluoro-3-pyridyl)-4-[[(3R)-2,3,4,9-tetrahydro-1H-carbazol-3-yl]amino]pyrazolo[1,5-a][1,3,5]triazin-8-yl]-morpholino-methanone] | < 500 nM
